The source of these data is US9314026B2, “Heterocyclylpyri(mi)dinylpyrazole” (Bayer Intellectual Property GmbH, priority 2011, dated 2016).

The term chromatographic logP denotes lipophilicity estimated from chromatographic retention. Low readings indicate lower lipophilicity, high ones higher lipophilicity.

This data set in a line: determination of the log P values by HPLC on a reverse phase column (C18), EEC-Directive 79/831 Annex V.A8. Format: physicochemical. The procedure: Method A Note on the determination of the log P values and mass detection: The stated log P values were determined in accordance with EEC-Directive 79/831 Annex V.A8 by HPLC (High Performance Liquid Chromatography) on a reverse phase column (C18). […] The mass detection was effected with an […] system. Method B Note on the determination of the log P values and mass detection: The stated log P values were determined in accordance with EEC-Directive 79/831 Annex V.A8 by HPLC (High Performance Liquid Chromatography) on a reverse phase column (C18). […] The mass detection was effected with the Micronass ZQ2000 mass detector from Waters. Method C Note on the determination of the log P values and mass detection: The stated log P values were determined in accordance with EEC-Directive 79/831 Annex V.A8 by UPLC (Ultra Performance Liquid Chromatography) on a reverse phase column (C18). […] The mass detection was effected with the LCT Premier or SQD mass detector from Waters.

Read-outs that look alike come from different tables or passages of the source.

On to “3-iodo-5-methyl-2-phenyl-5,6-dihydro-4H-pyrrolo[1,2-b]pyrazole [[IV-7]]”, for which, where the note is “pH 2.3, compounds of the type [IV]”, the “LogP (pH 2.3)” value is given as 3.74. Besides, the “log P (pH 2.5)” value (pH 2.5, preparation examples in the text) was found to be 3.74. Where the note is “Method A (HPLC, C18, acetonitrile/water with formic acid), compounds of the type [I]”, `O=C(C1CC1)N(C(=O)C1CC1)c1cc(-c2c(-c3ccc(F)cc3)nn3c2CCCC3)ccn1` [Example 14, N-(cyclopropylcarbonyl)-N-{4-[2-(4-fluorophenyl)-4,5,6,7-tetrahydropyrazolo[1,5-a]pyridin-3-yl]pyridin-2-yl}cyclopropanecarboxamide] displayed a LogPA of 3.28. Also, the chromatographic logP (pH 2.7) was determined as 3.28. Compound `COC(=O)N(C(=O)C1CC1)c1cc(-c2c(-c3ccc(F)cc3)nn3c2CCC3)ccn1` [Example 15, methyl (cyclopropylcarbonyl){4-[2-(4-fluorophenyl)-5,6-dihydro-4H-pyrrolo[1,2-b]pyrazol-3-yl]pyridin-2-yl}carbamate] yielded a chromatographic logP of 2.54. Same read-out and setting: with `CCC(=O)N(C(=O)CC)c1cc(-c2c(-c3ccc(F)cc3)nn3c2CCC3C)ccn1` (stereo not shown) [Example 16, N-{4-[2-(4-fluorophenyl)-6-methyl-5,6-dihydro-4H-pyrrolo[1,2-b]pyrazol-3-yl]pyridin-2-yl}-N-propionylpropanamide] the figure was 3.21; with `CCC(=O)N(C(=O)C1CC1)c1cc(-c2c(-c3ccc(F)cc3)nn3c2CCCC3)ccn1` [Example 17, N-{4-[2-(4-fluorophenyl)-4,5,6,7-tetrahydropyrazolo[1,5-a]pyridin-3-yl]pyridin-2-yl}-N-propionylcyclopropanecarboxamide], 3.22; with `CCC(=O)N(C(=O)CC)c1cc(-c2c(-c3ccc(F)cc3)nn3c2CCCC3)ccn1` [Example 18, N-{4-[2-(4-fluorophenyl)-4,5,6,7-tetrahydropyrazolo[1,5-a]pyridin-3-yl]pyridin-2-yl}-N-propionylpropanamide], 3.18.

`Nc1cc(-c2c(-c3ccc(F)cc3)nn3c2CCC3)ccn1` [[II-1], 4-[2-(4-fluorophenyl)-5,6-dihydro-4H-pyrrolo[1,2-b]pyrazol-3-yl]pyridin-2-amine] displayed a chromatographic logP (pH 2.3) of 1.02 and a chromatographic logP (pH 2.7) of 1.02. For `Nc1cc(-c2c(-c3ccc(F)c(Cl)c3)nn3c2CCC3)ccn1` [[II-2], 4-[2-(3-chloro-4-fluorophenyl)-5,6-dihydro-4H-pyrrolo[1,2-b]pyrazol-3-yl]pyridin-2-amine], the chromatographic logP worked out at 1.28 (pH 2.3) and 1.28 (pH 2.7). Regarding `Nc1cc(-c2c(-c3ccc(F)c(F)c3)nn3c2CCC3)ccn1` [[II-3], 4-[2-(3,4-difluorophenyl)-5,6-dihydro-4H-pyrrolo[1,2-b]pyrazol-3-yl]pyridin-2-amine], the chromatographic logP amounted to 1.08 (pH 2.3) and 1.08 (pH 2.7). The compound `CC1(C)OB(c2c(-c3ccc(F)cc3)nn3c2CCC3)OC1(C)C` [[III-1], 2-(4-fluorophenyl)-3-(4,4,5,5-tetramethyl-1,3,2-dioxaborolan-2-yl)-5,6-dihydro-4H-pyrrolo[1,2-b]pyrazole] showed a chromatographic logP (pH 2.7) of 3.97.

For the compound `CC1(C)OB(c2c(-c3ccc(F)c(F)c3)nn3c2CCC3)OC1(C)C` [[III-2], 2-(3,4-difluorophenyl)-3-(4,4,5,5-tetramethyl-1,3,2-dioxaborolan-2-yl)-5,6-dihydro-4H-pyrrolo[1,2-b]pyrazole], under “pH 2.7”, the chromatographic logP stood at 4.3. Same read-out and setting: with `CC1(C)OB(c2c(-c3ccc(F)c(Cl)c3)nn3c2CCC3)OC1(C)C` [[III-3], 2-(3-chloro-4-fluorophenyl)-3-(4,4,5,5-tetramethyl-1,3,2-dioxaborolan-2-yl)-5,6-dihydro-4H-pyrrolo[1,2-b]pyrazole] the figure was 4.73.

With `Fc1ccc(-c2nn3c(c2Br)CCC3)cc1` [[IV-1], 3-bromo-2-(4-fluorophenyl)-5,6-dihydro-4H-pyrrolo[1,2-b]pyrazole], the chromatographic logP reads like this: (pH 2.3) 3.21; (pH 7) 3.21.

As to `Fc1ccc(-c2nn3c(c2Br)CCC3)cc1F` [[IV-2], 3-bromo-2-(3,4-difluorophenyl)-5,6-dihydro-4H-pyrrolo[1,2-b]pyrazole], the chromatographic logP was 3.54 (pH 2.3) and 3.54 (pH 2.5).

As to `Fc1ccc(-c2nn3c(c2Br)CCC3)cc1Cl` [[IV-3], 3-bromo-2-(3-chloro-4-fluorophenyl)-5,6-dihydro-4H-pyrrolo[1,2-b]pyrazole], the chromatographic logP is, setting by setting: (pH 2.3) 4.01; (pH 2.5) 4.01. `CC1CCn2nc(-c3ccccc3)c(I)c21` (stereo not shown) [[IV-4], 3-iodo-4-methyl-2-phenyl-5,6-dihydro-4H-pyrrolo[1,2-b]pyrazole]: the chromatographic logP (pH 2.3) is 3.56 and the chromatographic logP (pH 2.5) amounted to 3.56.

For the compound `CC1CCc2c(I)c(-c3ccc(F)cc3)nn21` (stereo not shown) [[IV-5], 2-(4-fluorophenyl)-3-iodo-6-methyl-5,6-dihydro-4H-pyrrolo[1,2-b]pyrazole], the chromatographic logP was found to be 3.78 (pH 2.3) and 3.78 (pH 2.5). Take `Clc1cc(-c2nn3c(c2I)CCCC3)cs1` [[IV-6], 2-(5-chloro-3-thienyl)-3-iodo-4,5,6,7-tetrahydropyrazolo[1,5-a]pyridine]: the chromatographic logP stood at 4.49 (pH 2.3) and 4.49 (pH 2.5). In the case of `Fc1ccc(-c2cc3n(n2)CCC3)cc1` [[VI-1], 2-(4-fluorophenyl)-5,6-dihydro-4H-pyrrolo[1,2-b]pyrazole], the chromatographic logP reads like this: (pH 2.3) 2.39; (pH 2.7) 2.39. As for `Fc1ccc(-c2cc3n(n2)CCC3)cc1F` [[VI-2], 2-(3,4-difluorophenyl)-5,6-dihydro-4H-pyrrolo[1,2-b]pyrazole], the chromatographic logP turned out to be 2.69 (pH 2.3) and 2.69 (pH 2.7).

As to `Fc1ccc(-c2cc3n(n2)CCC3)cc1Cl` [[VI-3], 2-(3-chloro-4-fluorophenyl)-5,6-dihydro-4H-pyrrolo[1,2-b]pyrazole], the chromatographic logP worked out at 3.07 (pH 2.3) and 3.07 (pH 2.7). With `CS(=O)(=O)OCCCc1cc(-c2ccc(F)cc2)n[nH]1` [[VII-1], 3-[3-(4-fluorophenyl)-1H-pyrazol-5-yl]propyl methanesulfonate], for the setting “pH 2.7”, the chromatographic logP is 2. Still for that read-out and setting: with `CS(=O)(=O)OCCCc1cc(-c2ccc(F)c(Cl)c2)n[nH]1` [[VII-2], 3-[3-(3-chloro-4-fluorophenyl)-1H-pyrazol-5-yl]propyl methanesulfonate] the figure was 2.42; with `CS(=O)(=O)OCCCc1cc(-c2ccc(F)c(F)c2)n[nH]1` [[VII-3], 3-[3-(3,4-difluorophenyl)-1H-pyrazol-5-yl]propyl methanesulfonate], 2.17. Consider `CC(=O)Nc1cc(-c2c(-c3ccccc3)nn3c2C(C)CC3)ccn1` (stereo not shown) [[XI-1], N-[4-(4-methyl-2-phenyl-5,6-dihydro-4H-pyrrolo[1,2-b]pyrazol-3-yl)pyridin-2-yl]acetamide], for which the chromatographic logP reads like this: (pH 2.3) 1.6; (pH 2.7) 1.76. Take `CCC(=O)Nc1cc(-c2c(-c3ccccc3)nn3c2C(C)CC3)ccn1` (stereo not shown) [[XI-2], N-[4-(4-methyl-2-phenyl-5,6-dihydro-4H-pyrrolo[1,2-b]pyrazol-3-yl)pyridin-2-yl]propanamide]: the chromatographic logP (pH 2.3) is 1.87. Still for that read-out and setting: then `CC(=O)Nc1cc(-c2c(-c3ccc(F)cc3)nn3c2CC(C)C3)ccn1` (stereo not shown) [[XI-3], N-{4-[2-(4-fluorophenyl)-5-methyl-5,6-dihydro-4H-pyrrolo[1,2-b]pyrazol-3-yl]pyridin-2-yl}acetamide], with 1.64. On the same count and under the same terms, with `O=C(Nc1cc(-c2c(-c3ccc(F)cc3)nn3c2CCC3)ccn1)C1CC1` [[XI-4], N-{4-[2-(4-fluorophenyl)-5,6-dihydro-4H-pyrrolo[1,2-b]pyrazol-3-yl]pyridin-2-yl}cyclopropanecarboxamide] the figure was 1.73. Still for that read-out and setting: then `COCC(=O)Nc1cc(-c2c(-c3ccccc3)nn3c2C(C)CC3)ccn1` (stereo not shown) [[XI-5], 2-methoxy-N-[4-(4-methyl-2-phenyl-5,6-dihydro-4H-pyrrolo[1,2-b]pyrazol-3-yl)pyridin-2-yl]acetamide], with 2.22; and `CCC1CCc2c(-c3ccnc(NC(C)=O)c3)c(-c3ccc(F)cc3)nn21` (stereo not shown) [[XI-6], N-{4-[6-ethyl-2-(4-fluorophenyl)-5,6-dihydro-4H-pyrrolo[1,2-b]pyrazol-3-yl]pyridin-2-yl}acetamide], with 1.96. In turn, `CCC(=O)Nc1cc(-c2c(-c3ccc(F)cc3)nn3c2CC(C)C3)ccn1` (stereo not shown) [[XI-7], N-{4-[2-(4-fluorophenyl)-5-methyl-5,6-dihydro-4H-pyrrolo[1,2-b]pyrazol-3-yl]pyridin-2-yl}propanamide] came in with a chromatographic logP (pH 2.3) of 1.91. The same measure, in the same setting: then `CC(C)C(=O)Nc1cc(-c2c(-c3ccc(F)cc3)nn3c2CCC3)ccn1` [[XI-8], N-{4-[2-(4-fluorophenyl)-5,6-dihydro-4H-pyrrolo[1,2-b]pyrazol-3-yl]pyridin-2-yl}-2-methylpropanamide], with 1.97; and `CCC(=S)Nc1cc(-c2c(-c3ccc(F)cc3)nn3c2CCC3)ccn1` [[XI-9], N-{4-[2-(4-fluorophenyl)-5,6-dihydro-4H-pyrrolo[1,2-b]pyrazol-3-yl]pyridin-2-yl}propanethioamide], with 2.74.

Where the note is “pH 2.3”, `CCC(=O)Nc1cc(-c2c(-c3ccc(F)c(F)c3)nn3c2CCC3)ccn1` [[XI-10], N-{4-[2-(3,4-difluorophenyl)-5,6-dihydro-4H-pyrrolo[1,2-b]pyrazol-3-yl]pyridin-2-yl}propanamide] displayed a chromatographic logP of 1.93.
